Data as given in patent US20040058993A1, “Inhibitor for the production of TNF alpha” (AJINOMOTO CO. INC., priority 2000, published 2004).

Key:
[1] = test system: TNFα production in Kupffer cells; assay: LPS-induced TNFα production in rat Kupffer cells (ELISA); assay type: cell-based; details: LPS 10 μg/ml, AMS 0.1 to 3 mM (glycine 0.3 to 30 mM), supernatant after 4 hours, FIG. 1
Description: A male rat of SD strain (body weight: 200-300 g) was subjected to laparotomy under anesthetization with Nembutal, a collagenase solution was perfused from portal vein, then the liver was excised and Kupffer cells were separated by an elutriator method. The Kupffer cells were adjusted to 5×10^5 cells/ml, each 100μ/well thereof were spread on a 96-well microplate and incubation was carried out for 48 hours using E-MEM (Eagle-MEM) and 10% FCS (fetal calf serum) to conduct the experiment. LPS (lipopoly saccharide) (10 μg/ml) and aminomethanesulofonic acid (AMS) or glycine were added at the same time thereto so as to make their concentrations 0.1 to 3 mM or 0.3 to 30 mM, respectively and the amount of TNFα produced in a supernatant liquid after incubation for 4 hours was measured by an ELISA (enzyme-linked immunosorbent assay).

[2] = test system: male rat of SD strain; assay: D-galactosamine-induced necrosis of hepatocytes in rat, plasma AST and ALT; assay type: in vivo; details: AMS 1.0 g/kg oral in 0.3% CMC 1 hour before D-galactosamine 600 mg/kg i.p., plasma after 24 hours, p<0.05
Description: Action of Aminomethanesulfonic Acid (AMS) to Necrosis of Hepatocytes (Method of Experiment)
A male rat of SD strain of 6 weeks age (150 g) was introduced, subjected to a preliminary breeding by giving CRF-1 (a feed manufactured by Oriental Yeast) and water for six days, fasted for one night and used for the experiment. During the fasting, a 10% aqueous solution of glucose was freely taken by the rat for preventing the lowering of blood-sugar level. D-galactosamine (600 mg/kg) adjusted to pH 6.8 was intraperitoneally administered using a 30% physiological saline solution. After 24 hours from administration of D-galactosamine, 700 μl of blood were collected from subclavian vein under anesthetization with ether and AST (aspartate aminotransferase) and ALT (alanine aminotransferase) in plasma were measured by a Fuji Dry Chem (an automated biochemical measuring apparatus for blood manufactured by Fuji Photo-Film). One hour before the administration of D-galactosamine, AMS was orally administered as a drug to be tested using a 0.3% aqueous solution of carboxymethyl cellulose (CMC).
Group 2: AMS (1.0 g/kg)/0.3% CMC n=8.

SMILES: NCS(=O)(=O)O [aminomethanesulfonic acid]
- inhibition of the production of TNFα [1]: inhibited the production of TNFα in a considerably strong manner as compared with glycine
- rise in ALT in the plasma ([2]; FIG. 2): significantly inhibited
- rise in AST in the plasma ([2]; FIG. 3): significantly inhibited
